Patent US20140142053A1, “Use of a Composition Comprising Acylated Steryl Glucoside in the Manufacture of a Product” (UNIVERSITI PUTRA MALAYSIA, priority 2011, published 2014)

Assays:
[1] = test system: low-density lipoprotein (LDL); experiment: percentage change in low-density lipoprotein in diabetic rats (FIG. 5); assay type: in vivo, rat; conditions: compared to white rice-fed and tween-treated rats
[2] = test system: high-density lipoprotein (HDL); experiment: percentage change in high-density lipoprotein in diabetic rats (FIG. 7); assay type: in vivo, rat; conditions: A200: ASG in 200 mg/kg body weight, compared to white-rice fed and metformin-treated rats

Row | Molecule | LDL level (percentage change in low-density lipoprotein) ([1]; fed/treated groups) | HDL level (percentage change in high-density lipoprotein) [2] | LDL level (percentage change in low-density lipoprotein) ([1]; A100: ASG in 100 mg/kg body weight) | LDL level (percentage change in low-density lipoprotein) ([1]; A200: ASG in 200 mg/kg body weight)
1 | CN(C)C(=N)N=C(N)N [metformin, reference compound] | reduced | – | – | –
2 | acylated steryl glucoside [ASG] | – | increased | reduced | reduced
